Measurements reported in article PMC6009868, “Synthesis and bioactivity of several new hetaryl sulfonamides” (Journal of Enzyme Inhibition and Medicinal Chemistry, 2017).

Experiment: Metal chelating activity (Fe2+-ferrozine, 562 nm)
Conditions: absorbance at 562 nm
Description: Metal chelating capacity of hetaryl sulfonamides 1–12 was determined according to Dinis et al.[60]. […] Simultaneously, to a mixture of FeCl2 (0.1 mL, 0.6 mM), three concentrations (10–30 µg/mL) of hetaryl sulfonamides 1–12 in ethanol (0.4 mL) were added. The activities were initiated by the addition of ferrozine molecules (0.1 mL, 5 mM). Additionally, the reaction was mixed and maintained in a dark room for 10 min.

SMILES | Fe^2+ chelating (IC50)
COc1ccc(O)c(C(C)(C)C)c1 [BHA] | 46.20 µg/mL
Cc1cc(C(C)(C)C)c(O)c(C(C)(C)C)c1 [BHT] | 76.96 µg/mL
O=C(O)CN(CCN(CC(=O)O)CC(=O)O)CC(=O)O [EDTA] | 9.36 µg/mL
Cc1c(C)c2c(c(C)c1O)CCC(C)(C(=O)O)O2 (centres unmarked) [Trolox] | 31.13 µg/mL
Cc1c(C)c2c(c(C)c1O)CC[C@@](C)(CCC[C@H](C)CCC[C@H](C)CCCC(C)C)O2 [α-Tocopherol] | 40.76 µg/mL
